Measurements taken from PMC5729429, “Gimatecan exerts potent antitumor activity against gastric cancer in vitro and in vivo via AKT and MAPK signaling pathways” (Journal of Translational Medicine, 2017).
Counter-ions that a name gives are not always drawn.

Tested on: SNU-1 cells
Test: Annexin V-PE/7-AAD apoptosis assay (flow cytometry), SNU-1
Format: cell-based, human
Conditions: 24 h
Experimental: Apoptosis was measured by staining with phycoerythrin (PE)-annexin V and 7-amino-actinomycin (7-AAD) (BD Biosciences, Erembodegem, Belgium) for 15 min at room temperature in the dark, followed by flow cytometry (BD Biosciences) within 1 h. Apoptosis was analyzed with FlowJo 7.6 software (FlowJo, LLC, Ashland, Oregon).
Cells were treated with gimatecan (0–1 µM) and irinotecan (0–1 µM) for 24 h and stained with Annexin V-PE/7-AAD. Sums of percentages of early apoptosis (Q3) and late apoptosis (Q2) were calculated as the total apoptosis ratios. c, d Pro- and anti-apoptotic proteins including Bcl-2, Bak, PARP and cleaved PARP were assessed by western-blotting in SNU-1 and NCI-N87 cells. Western-blotting bands were quantified and normalized by ImageJ. […] They are left out because no substance is present, and they are also barely readable.

Row | Compound | proportion of apoptotic cells (SNU-1, 1000 nM) [%] | apoptosis induced compared with controls (0–1 µM, stated generally for the GC cell lines tested)
1 | CC[C@@]1(O)C(=O)OCc2c1cc1n(c2=O)Cc2c-1nc1ccccc1c2/C=N/OC(C)(C)C [Gimatecan, 7-t-butoxyiminomethylcamptothecin] | 14.38 ± 2.11 | –
2 | CCc1c2c(nc3ccc(OC(=O)N4CCC(N5CCCCC5)CC4)cc13)-c1cc3c(c(=O)n1C2)COC(=O)[C@]3(O)CC [Irinotecan, irinotecan hydrochloride] | – | not obvious
